Measurements: patent publication US20260042747A1, “KIT INHIBITORS, COMPOUNDS, PHARMACEUTICAL COMPOSITIONS, AND METHODS OF USE THEREOF” (Alivexis, Inc., priority 2022, published 2026)
Counter-ions that a name gives are not always drawn. Like-named read-outs stand apart in the source and are kept apart here.

Key:
M-07e cells = test: SCF-dependent M-07e cell proliferation assay; assay type: cell-based, human; details: read-out: M-07e IC50
Method: SCF-dependent cell proliferation assay was developed to measure the inhibitory potency of the compounds in M-07e cells, which express wild-type human KIT protein. The assay was performed in 96-well plates and the IC50 of each KIT inhibitor was determined by CellTiter Glo Assay reagent and Victor X5 Multilabel Counter (Perkin Elmer).
M-07e cells were purchased from AcceGen Biotechnology. Cells were maintained with M-07e Growth medium: RPMI-1640 containing 20% FBS, 100 U/mL penicillin and 100 microgram/mL streptomycin, 10 ng/mL rhGM-CSF, 10 ng/mL rhSCF. M-07e cells were seeded at a density of 5000 cells/90 μL/well in 96-well plates. Test compounds were dissolved in 100% DMSO to make 20 mM stock solution and serially diluted 1:3 with 100% DMSO to make an 11-point dilution series with concen-trations from […] to 0.024 μM. The serially diluted compounds were then each diluted 1:50 with culture medium to obtain assay compound solutions containing 2% DMSO. Ten μL of assay compound solutions were added to the 90 μL of culture cell suspension in the 96-well plate, with a final DMSO concentration of 0.2%. The plates were then incubated in a 5% CO2 incubator at 37° C. for 3 days. To obtain Day Zero Controls for background calculation, cells were seeded at 5000 cells/100 μL in a new 96-well plate and processed on the same day. Both Day Zero controls and 3 day culture plates were then treated as follows. 100 μL of CellTiter Glo Assay reagent was added to each well and the plate was incubated at room temperature for 15 min on a shaker at 200-300 RPM. Then 100 μL of cell lysate samples were transferred to white wall 96-well plates and luminescence was measured by a plate reader. The luminescence of Day Zero Control was subtracted from the luminescence intensity of 3 day culture readings. The assay control for this experiment was cells treated with 0.2% DMSO in culture medium and wells with 100 μL of culture medium (0.2% DMSO without cells) were used as the blank for data analysis.
The IC50 value of each compound was determined by using % inhibition by nor-malizing inhibition in DMSO treated control wells to 0% using the following formula method: […]
Plot percent inhibition in proliferation of triplicates against the respective concen-trations of compound and fit the dose response curve using the sigmoidal dose response equation to generate the IC50 in GraphPad Prism 8 software.

[1] = target: recombinant human KIT tyrosine kinase protein (Homo sapiens (Human), UniProt P10721); test: KIT tyrosine kinase assay (ADP-Glo); assay type: biochemical
Method: An in vitro assay utilizing the recombinant human KIT tyrosine kinase protein was developed to measure compound inhibition of KIT. KIT tyrosine kinase activity was measured by the ADP-Glo Kinase Assay system with poly […]) peptide substrate. Kinase Assay was performed in white 384-well plates and the luminescence was measured by Victor X5 Multilabel Counter (Perkin Elmer). Recombinant intracellular domain of human KIT protein was purchased from Carna Biosciences (Kobe, Japan). Poly […]) peptide was purchased from Sigma-Aldrich (St. Louis, Missouri, USA). ADP-Glo Kinase Assay reagent was purchased from Promega (Madison, Wisconsin, USA). Each test compound was dissolved in 100% DMSO to prepare 10 mM stock solutions. […] After the preincubation, 3 μL of substrate/ATP mixture was added and incubated for 1 hour at room temperature. The tyrosine phosphorylation by KIT kinase was quantified by ADP-Glo kinase assay kit following the manufacturer's protocol. Briefly, the phosphorylation reaction was terminated by adding 10 μL ADP-Glo reagent and incubated for 60 minutes at room temperature. 20 μL of Kinase Detection Reagent was added to each well and luminescence was measured by plate reader. […] Half maximal inhibitory concentration (IC50) was calculated by a Four […] Logistic Regression model using GraphPad Prism (GraphPad Software). The value without recombinant KIT protein and without test compound was used as a negative control (assay background).

[2] = Homo sapiens, M-07e, 72 h, SCF-dependent M-07e cell proliferation, 3 days, CellTiter Glo

Chain of recombinant human KIT tyrosine kinase protein (P10721 546-976): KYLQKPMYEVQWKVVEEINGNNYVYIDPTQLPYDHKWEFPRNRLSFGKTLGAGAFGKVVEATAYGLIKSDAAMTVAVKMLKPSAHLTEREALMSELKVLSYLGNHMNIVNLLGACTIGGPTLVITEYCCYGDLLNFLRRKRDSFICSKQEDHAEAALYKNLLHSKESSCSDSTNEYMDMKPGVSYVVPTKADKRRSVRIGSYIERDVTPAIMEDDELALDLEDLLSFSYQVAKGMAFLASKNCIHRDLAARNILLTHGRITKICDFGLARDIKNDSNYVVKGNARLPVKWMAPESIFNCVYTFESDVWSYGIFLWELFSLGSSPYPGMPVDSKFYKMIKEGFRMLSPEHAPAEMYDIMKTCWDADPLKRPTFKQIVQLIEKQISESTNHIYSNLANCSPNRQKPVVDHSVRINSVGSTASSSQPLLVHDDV

SMILES	IC50 ([1]; Table 98)	IC50 ([1]; Table 99)	other results
COc1cc(C(=O)NCc2ccc(N(C)[C@H]3C[C@@H](C(F)(F)F)C3)nc2)cc2[nH]c(=O)[nH]c12 [Example 145]		15 nM	IC50 (M-07e cells; Homo sapiens, M-07e, 72 h): 515 nM
Cn1c(=O)[nH]c2cc(C(=O)NCc3ccc(OC4CCOC(C)(C)C4)nc3)ccc21 (stereo not shown) [Example 48]	550 nM		IC50 (M-07e cells; Homo sapiens, M-07e, 72 h): 8900 nM
CN(c1ccc(CNC(=O)c2ccc3c(c2)[nH]c(=O)n3C)cn1)C1Cc2ccccc2C1 [Example 120]		45 nM	IC50 (M-07e cells; Homo sapiens, M-07e, 72 h): 206 nM
CN(c1ccc(CNC(=O)c2ccc3c(c2)[nH]c(=O)n3C)cn1)C1CCC(F)(F)CC1 [Compound 10, N-((6-((4,4-Difluorocyclohexyl)(methyl)amino)pyridin-3-yl)methyl)-1-methyl-2-oxo-2,3-dihydro-1H-benzimidazole-5-carboxamide]			IC50 (M-07e cells; [2]): 240 nM
CN(c1ccc(CNC(=O)c2ccc3[nH]c(=O)[nH]c3c2)cn1)C1CCC(F)(F)CC1 [Example 128]			IC50 (M-07e cells; [2]): 2830 nM
CN(c1ccc(CNC(=O)c2ccc3c(c2)[nH]c(=O)n3C)cn1)C1CCOCC1 [Example 60]	140 nM		
Cn1c(=O)[nH]c2cc(C(=O)NCc3ccc(Oc4ccc5cn[nH]c5c4)nc3)ccc21 [Example 44]	120 nM		
Cn1c(=O)[nH]c2cc(C(=O)NCc3ccc(OC4CCC(F)(F)CC4)nc3)ccc21 [Example 47]	56 nM		
Cn1c(=O)[nH]c2cc(C(=O)NCc3cnc(Oc4ccc(F)cc4)s3)ccc21 [Compound 5, N-((2-(4-Fluorophenoxy)thiazol-5-yl)methyl)-1-methyl-2-oxo-2,3-dihydro-1H-benz imidazole-5-carboxamide]	3200 nM		
C[C@H](NC(=O)c1ccc2c(c1)[nH]c(=O)n2C)c1ccc(Oc2ccc(Cl)cc2F)nc1 [Example 54]	33 nM		
O=C(NCc1ccc(Nc2ccc(F)cc2)nc1)c1ccc2[nH]c(=O)[nH]c2c1 [Compound 8, N-((6-((4-Fluorophenyl)amino)pyridin-3-yl)methyl)-2-oxo-2,3-dihydro-1H-benzimidazole-5-carboxamide trifluoroacetate]	190 nM		
CC(NC(=O)c1ccc2c(c1)[nH]c(=O)n2C)c1ccc(Oc2ccc(F)cc2)nc1 (single isomer, unassigned) [Compound 6 Peak 1, N-(1-(6-(4-Fluorophenoxy)pyridin-3-yl)ethyl)-1-methyl-2-oxo-2,3-dihydro-1H-benzimid azole-5-carboxamide]			IC50 (M-07e cells; [2]): 680 nM
CC(NC(=O)c1ccc2c(c1)[nH]c(=O)n2C)c1ccc(N(C)C(C)C)nc1 (single isomer, unassigned) [130 Peak 2]		1040 nM	

Further lines, with some results ahead:

IC50 ([1]; Table 98)	IC50 ([1]; Table 99)	SMILES	other results
96 nM		CC(C)N(C)c1ccc(CNC(=O)c2ccc3c(c2)[nH]c(=O)n3C)cn1 [Compound 11b, N-((6-(Isopropyl(methyl)amino)pyridin-3-yl)methyl)-1-methyl-2-oxo-2,3-dihydro-1H-be nzimidazole-5-carboxamide hydrochloride]	IC50 (M-07e cells; [2]): 220 nM
	27 nM	CN(c1ccc(CNC(=O)c2cc(Cl)c3[nH]c(=O)[nH]c3c2)cn1)[C@H]1C[C@@H](C(F)(F)F)C1 [compound 141]	IC50 (M-07e cells; SCF-dependent M-07e cell proliferation, 3 days, CellTiter Glo): 153 nM
67 nM		CC(c1ccc(F)cc1)c1ccc(CNC(=O)c2ccc3c(c2)[nH]c(=O)n3C)cn1 (stereo not shown) [Compound 15, N-((6-(1-(4-Fluorophenyl)ethyl)pyridin-3-yl)methyl)-1-methyl-2-oxo-2,3-dihydro-1H-be nzimidazole-5-carboxamide]	IC50 (M-07e cells; [2]): 2200 nM
3300 nM		Cn1c(=O)[nH]c2cc(C(=O)NCc3cnc4c(c3)ncn4-c3ccccc3F)ccc21 [Example 101]	
950 nM		Cn1c(=O)[nH]c2cc(C(=O)NCc3cnc(Oc4ccc(F)cc4)cn3)ccc21 [Example 49]	
	274 nM	CC(C)Oc1ccc(CNC(=O)c2ccc3c(c2)[nH]c(=O)n3C)cn1 [Example 117]	
	632 nM	Cn1c(=O)[nH]c2cc(C(=O)NCc3ccc(OC4CC(F)(F)C4)nc3)ccc21 [Example 118]	
120 nM		CN(Cc1ccccc1)c1ncc(CNC(=O)c2ccc3c(c2)[nH]c(=O)n3C)s1 [Example 91]	
	131 nM	Cn1c(=O)[nH]c2cc(C(=O)NCc3ccc(NC4CCC(F)(F)CC4)nc3)ccc21 [Example 132]	
